Source: PMC11992225, “Antibacterial compounds against non-growing and intracellular bacteria” (npj Antimicrobials and Resistance, 2025)
In brackets after ≈: the same amount, converted by molar mass. Several values for one entry are separate records, joined by “and”; a condition that tells them apart may be missing. Equal values may be shown once. Read-outs that look alike come from different tables or passages of the source.

How the values were obtained:
[1] = test system: non-growing UPEC CFT073; experiment: Dose-dependent killing analysis (CFU spot-plating) of stationary-phase UPEC; format: cell-based, Escherichia coli; settings: for bactericidal activity against non-growing UPEC (CFU counting): 24 h treatment of stationary phase culture
Method in brief: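 Killing assessed by CFU counts: overnight 37 °C LB agar spot plates (10 μl drops of 10-fold PBS dilutions) scored at the lowest dilution with distinct colonies. Samples were compound-treated non-growing UPEC CFT073, 200 μl per well. Performed as three biological replicates.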

[2] = test system: intracellular S. flexneri 5a M90T in TC7 cells; experiment: microbe, parasite or virus in culture; format: cell-based, Shigella flexneri; settings: for Fluorescence intensity (RFU), Mean, 0.0625 x MIC / Fluorescence intensity (RFU), Mean, 0.125 x MIC / Fluorescence intensity (RFU), Mean, 0.25 x MIC / Fluorescence intensity (RFU), Mean, 0.5 x MIC / Fluorescence intensity (RFU), Mean, 2 x MIC / Fluorescence intensity (RFU), Mean, MIC / Fluorescence intensity (RFU), Mean, 4 x MIC / Fluorescence intensity (RFU), Mean, 8 x MIC / Fluorescence intensity (RFU), Mean, 16 x MIC / Fluorescence intensity (RFU), Mean, 32 x MIC: TC7 cells infected with GFP-expressing S. flexneri, 14 h treatment
[3] = test system: S. aureus DSM2569; experiment: MIC, standard microdilution assay, growing S. aureus; format: cell-based, Staphylococcus aureus; settings: S. aureus, CA-MHB pH 7.4, read-out: MIC (μM) CA-MHB
Method in brief: (§1)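 Each strain was exposed to serially diluted compound in broth, in triplicate. The media were TSB for Shigella; CA-MHB at pH 7.4 (HEPES 40 mM) for S. aureus, P. aeruginosa and UPEC; and, for UPEC only, low-pH LPM (pH 5.5, 30 mM MES).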

[4] = test system: E. coli CFT073 (UPEC); experiment: MIC, standard microdilution assay, growing UPEC; format: cell-based, Escherichia coli; settings: E. coli
Method in brief: as §1

[5] = E. coli in LPM (pH 5.5), drug concentration 0.25
[6] = E. coli in LPM (pH 5.5), drug concentration 0.5
[7] = E. coli in LPM (pH 5.5), drug concentration 1
[8] = E. coli in LPM (pH 5.5), drug concentration 2.5
[9] = E. coli in LPM (pH 5.5), drug concentration 5
[10] = E. coli in LPM (pH 5.5), drug concentration 10
[11] = pH 7.4, CA-MHB, read-out: MIC (μM) CA-MHB

With `CC(=O)[O][Pt]([NH2])([Cl])([Cl])([NH]C1CCCCC1)[O]C(C)=O` [Satraplatin] the “killing, average Δlog10(CFU/ml)” value [1, 5] was 0.465 log10(CFU/ml), the “log10(CFU/ml) after treatment, replicate 1” value (“log10(CFU/ml) … replicate 1” for short) [1, 5] was 6.778 log10(CFU/ml) and the “log10(CFU/ml) after treatment, replicate 2” value (from here on “log10(CFU/ml) … replicate 2”) [1, 5] was 6.431 log10(CFU/ml). The “log10(CFU/ml) after treatment, replicate 3” value (from here on “log10(CFU/ml) … replicate 3”) [1, 5] was 7.447 log10(CFU/ml), the “killing, average Δlog10(CFU/ml)” value [1, 6] was 0.567 log10(CFU/ml) and the “log10(CFU/ml) … replicate 1” value [1, 6] was 7.041 log10(CFU/ml). The “log10(CFU/ml) … replicate 2” value [1, 6] was 6.079 log10(CFU/ml), the “log10(CFU/ml) … replicate 3” value [1, 6] was 7.230 log10(CFU/ml) and the “killing, average Δlog10(CFU/ml)” value [1, 7] was 0.828 log10(CFU/ml). For the same molecule, the “log10(CFU/ml) … replicate 1” value [1, 7] was 6.778 log10(CFU/ml), the “log10(CFU/ml) … replicate 2” value [1, 7] was 6.176 log10(CFU/ml) and the “log10(CFU/ml) … replicate 3” value [1, 7] was 6.613 log10(CFU/ml). The “killing, average Δlog10(CFU/ml)” value [1, 8] was 1.360 log10(CFU/ml), the “log10(CFU/ml) … replicate 1” value [1, 8] was 6.954 log10(CFU/ml) and the “log10(CFU/ml) … replicate 2” value [1, 8] was 5.903 log10(CFU/ml). For the same molecule, the “log10(CFU/ml) … replicate 3” value [1, 8] was 5.114 log10(CFU/ml), the “killing, average Δlog10(CFU/ml)” value [1, 9] was 1.695 log10(CFU/ml) and the “log10(CFU/ml) … replicate 1” value [1, 9] was 6.146 log10(CFU/ml). The “log10(CFU/ml) … replicate 2” value [1, 9] was 5.778 log10(CFU/ml), the “log10(CFU/ml) … replicate 3” value [1, 9] was 5.041 log10(CFU/ml) and the “killing, average Δlog10(CFU/ml)” value [1, 10] was 2.758 log10(CFU/ml). The “log10(CFU/ml) … replicate 1” value [1, 10] was 5.778 log10(CFU/ml), the “log10(CFU/ml) … replicate 2” value [1, 10] was “=<4 log10(CFU/ml)” and the “log10(CFU/ml) … replicate 3” value [1, 10] was “=<4 log10(CFU/ml)”. For the same molecule, the “Fluorescence intensity (RFU), Mean, 0.0625 x MIC” value [2] was 9460.97 RFU, the “Fluorescence intensity (RFU), Mean, 0.125 x MIC” value [2] was 9284.03 RFU and the “Fluorescence intensity (RFU), Mean, 0.25 x MIC” value [2] was 8685.25 RFU. For the same molecule, the “Fluorescence intensity (RFU), Mean, 0.5 x MIC” value [2] was 7328.94 RFU, the “Fluorescence intensity (RFU), Mean, 2 x MIC” value [2] was 2689 RFU and the “Fluorescence intensity (RFU), Mean, MIC” value [2] was 4882 RFU. The MIC [3] was 80 µM, the MIC ([4]; LPM pH 5.5, read-out: MIC) was 32 µM and the MIC [4, 11] was greater than 160 µM.
For `N[C@@H]1CN(c2c(F)cc3c(=O)c(C(=O)O)cn([C@@H]4C[C@@H]4F)c3c2Cl)CC12CC2` [Sitafloxacin], the “bactericidal activity against non-growing UPEC (CFU counting)” value [1] was “most potent and bactericidal”, the “killing, average Δlog10(CFU/ml)” value ([1]; E. coli in 1:4 CA-MHB (pH 7.4), drug concentration 0.25) was 1.161 log10(CFU/ml) and the “log10(CFU/ml) of treated nongrowing bacteria (single replicates)” value (from here on “log10(CFU/ml) … (single replicates)”) ([1]; E. coli in 1:4 CA-MHB (pH 7.4), drug concentration 0.25, before treatment 8.977) was 8.415 log10(CFU/ml) and 7.602 log10(CFU/ml) and 7.431 log10(CFU/ml). For the same molecule, the “killing, average Δlog10(CFU/ml)” value ([1]; E. coli in 1:4 CA-MHB (pH 7.4), drug concentration 0.5) was 2.277 log10(CFU/ml), the “log10(CFU/ml) … (single replicates)” value ([1]; E. coli in 1:4 CA-MHB (pH 7.4), drug concentration 0.5, before treatment 8.977) was 7.255 log10(CFU/ml) and 6.699 log10(CFU/ml) and 6.146 log10(CFU/ml) and the “killing, average Δlog10(CFU/ml)” value ([1]; E. coli in 1:4 CA-MHB (pH 7.4), drug concentration 1) was 3.175 log10(CFU/ml). For the same molecule, the “log10(CFU/ml) … (single replicates)” value ([1]; E. coli in 1:4 CA-MHB (pH 7.4), drug concentration 1, before treatment 8.977) was 6.204 log10(CFU/ml) and 5.903 log10(CFU/ml) and 5.301 log10(CFU/ml), the “killing, average Δlog10(CFU/ml)” value ([1]; E. coli in 1:4 CA-MHB (pH 7.4), drug concentration 2.5) was 4.145 log10(CFU/ml) and the “log10(CFU/ml) … (single replicates)” value ([1]; E. coli in 1:4 CA-MHB (pH 7.4), drug concentration 2.5, before treatment 8.977) was 5.176 log10(CFU/ml) and 4.477 log10(CFU/ml) and 4.845 log10(CFU/ml). For the same molecule, the “killing, average Δlog10(CFU/ml)” value ([1]; E. coli in 1:4 CA-MHB (pH 7.4), drug concentration 5) was 4.067 log10(CFU/ml), the “log10(CFU/ml) … (single replicates)” value ([1]; E. coli in 1:4 CA-MHB (pH 7.4), drug concentration 5, before treatment 8.977) was 5.255 log10(CFU/ml) and 4.699 log10(CFU/ml) and 4.778 log10(CFU/ml) and the “killing, average Δlog10(CFU/ml)” value ([1]; E. coli in 1:4 CA-MHB (pH 7.4), drug concentration 10) was 4.500 log10(CFU/ml). For the same molecule, the “log10(CFU/ml) … (single replicates)” value ([1]; E. coli in 1:4 CA-MHB (pH 7.4), drug concentration 10, before treatment 8.977) was 4.954 log10(CFU/ml) and =<4 log10(CFU/ml) and 4.477 log10(CFU/ml), the “killing, average Δlog10(CFU/ml)” value [1, 5] was -0.135 log10(CFU/ml) and the “log10(CFU/ml) … (single replicates)” value ([1]; E. coli in LPM (pH 5.5), drug concentration 0.25, before treatment 7.350) was 7.000 log10(CFU/ml) and 7.176 log10(CFU/ml) and 8.279 log10(CFU/ml). For the same molecule, the “killing, average Δlog10(CFU/ml)” value [1, 6] was 0.023 log10(CFU/ml), the “log10(CFU/ml) … (single replicates)” value ([1]; E. coli in LPM (pH 5.5), drug concentration 0.5, before treatment 7.350) was 6.778 log10(CFU/ml) and 7.000 log10(CFU/ml) and 8.204 log10(CFU/ml) and the “killing, average Δlog10(CFU/ml)” value [1, 7] was -0.037 log10(CFU/ml). The “log10(CFU/ml) … (single replicates)” value ([1]; E. coli in LPM (pH 5.5), drug concentration 1, before treatment 7.350) was 7.146 log10(CFU/ml) and 7.114 log10(CFU/ml) and 7.903 log10(CFU/ml), the “killing, average Δlog10(CFU/ml)” value [1, 8] was 0.324 log10(CFU/ml) and the “log10(CFU/ml) … (single replicates)” value ([1]; E. coli in LPM (pH 5.5), drug concentration 2.5, before treatment 7.350) was 7.000 log10(CFU/ml) (2×) and 7.079 log10(CFU/ml). For the same molecule, the “killing, average Δlog10(CFU/ml)” value [1, 9] was 1.016 log10(CFU/ml), the “log10(CFU/ml) … (single replicates)” value ([1]; E. coli in LPM (pH 5.5), drug concentration 5, before treatment 7.350) was 6.301 log10(CFU/ml) and 6.954 log10(CFU/ml) and 5.748 log10(CFU/ml) and the “killing, average Δlog10(CFU/ml)” value [1, 10] was 1.383 log10(CFU/ml). For the same molecule, the “log10(CFU/ml) … (single replicates)” value ([1]; E. coli in LPM (pH 5.5), drug concentration 10, before treatment 7.350) was 6.279 log10(CFU/ml) and 6.544 log10(CFU/ml) and 5.079 log10(CFU/ml), the “Fluorescence intensity (RFU), Mean, 2 x MIC” value [2] was 4007.53 RFU and the “Fluorescence intensity (RFU), Mean, 4 x MIC” value [2] was 3422.83 RFU. The “Fluorescence intensity (RFU), Mean, 8 x MIC” value [2] was 3200.25 RFU, the “Fluorescence intensity (RFU), Mean, 16 x MIC” value [2] was 2414.89 RFU and the “Fluorescence intensity (RFU), Mean, 32 x MIC” value [2] was 2083.61 RFU. For the same molecule, the “Fluorescence intensity (RFU), Mean, MIC” value [2] was 5217.75 RFU, the IC50 ([2]; intracellular S. flexneri in TC7 cells, GFP fluorescence after 14 h treatment, read-out: IC50) was 0.025 µM and the MIC [3] was 0.125 µM (≈ 0.0512 µg/mL). It also gave an MIC ([4]; LPM pH 5.5, read-out: MIC) of 0.5 µM (≈ 0.205 µg/mL) and an MIC [4, 11] of 0.025 µM (≈ 0.0102 µg/mL).
With `CC[C@H]1OC(=O)[C@@](C)(F)C(=O)[C@H](C)[C@@H](O[C@@H]2O[C@H](C)C[C@H](N(C)C)[C@H]2O)[C@](C)(OC)C[C@@H](C)C(=O)[C@H](C)[C@H]2N(CCCCn3cc(-c4cccc(N)c4)nn3)C(=O)O[C@]12C` [Solithromycin] the “bactericidal activity against non-growing UPEC (CFU counting)” value [1] was “did not kill”, the “MIC:IC50 ratio” value ([2]; S. flexneri MIC in TSB versus intracellular IC50) was greater than 2 and the IC50 ([2]; Shigella flexneri, TC7, 14 h) was 1.68 µM. The “Fluorescence intensity (RFU), Mean, 0.0625 x MIC” value [2] was 9882.71 RFU, the “Fluorescence intensity (RFU), Mean, 0.125 x MIC” value [2] was 9214.08 RFU and the “Fluorescence intensity (RFU), Mean, 0.25 x MIC” value [2] was 4637.62 RFU. For the same molecule, the “Fluorescence intensity (RFU), Mean, 0.5 x MIC” value [2] was 2156.75 RFU, the “Fluorescence intensity (RFU), Mean, 2 x MIC” value [2] was 1563.03 RFU and the “Fluorescence intensity (RFU), Mean, 4 x MIC” value [2] was 1560.69 RFU. For the same molecule, the “Fluorescence intensity (RFU), Mean, 8 x MIC” value [2] was 1548.25 RFU, the “Fluorescence intensity (RFU), Mean, 16 x MIC” value [2] was 1546 RFU and the “Fluorescence intensity (RFU), Mean, 32 x MIC” value [2] was 1533.19 RFU. The “Fluorescence intensity (RFU), Mean, MIC” value [2] was 1837.61 RFU, the MIC ([3]; Staphylococcus aureus, DSM2569) was 0.05 µM (≈ 0.0423 µg/mL) and the “MIC (μM) CA-MHB +PAβN” value ([4]; pH 7.4, CA-MHB with 10 μg/ml efflux pump inhibitor PaβN) was 4 µM (≈ 3.38 µg/mL). The MIC ([4]; Escherichia coli, pH 7.4, 1:4 diluted CA-MHB, read-out: MIC (μM) 1:4 CA-MHB) was 10 µM (≈ 8.45 µg/mL) and the MIC ([4]; Escherichia coli, pH 7.4, CA-MHB, read-out: MIC (μM) CA-MHB) was 8 µM (≈ 6.76 µg/mL).
